According to patent US9415103B2, “Combination therapy to prevent DCIS formation and progression to breast cancer” (Yeda Research and Development Co. Ltd., priority 2011, dated 2016):

What was measured:
MCF10A-HER2 spheroids = experiment: Morphogenesis assay in Matrigel: luminal filling and cleaved Caspase-3 staining by confocal microscopy; assay type: cell-based, human; details: spheroids grown 4 days, then 10058-F4 1 μM, FIG. 4G; for luminal filling: LY-294002 2 μM or U0126 1 μM for up to 4 additional days, day 8; for Caspase-3 activation: LY-294002 2 μM or U0126 1 μM, imaged on day 6
[1] = test system: Notch pathway genes in MCF10A-HER2 spheroids; details: U0126 1 μM, up to five days, lumen-filled spheroids; FIG. 2C

Question: Which results are given for `CCc1ccc(/C=C2/SC(=S)NC2=O)cc1` [10058-F4]?
Answer: luminal filling (MCF10A-HER2 spheroids): significant inhibition; Caspase-3 activation (MCF10A-HER2 spheroids): markedly enhanced

Question: Which results are given for `N#CC(=C(/N)Sc1ccccc1N)/C(C#N)=C(\N)Sc1ccccc1N` [U0126]?
Answer: transcriptional induction of the Notch pathway (qRT-PCR) [1]: contributes to the transcriptional induction of the Notch pathway; luminal filling (MCF10A-HER2 spheroids): significant inhibition; Caspase-3 activation (MCF10A-HER2 spheroids): markedly enhanced
